Key:
[1] = test system: TLR7 induced IL-6 secretion in human mononuclear cells (PBMC's); test: TLR7 induced IL-6 in human PBMC's; assay type: cell-based; conditions: Homo sapiens, PBMC, read-out: TLR7 induced IL-6 secretion in hPBMC's (IC50)
Method: TLR7 Induced IL-6 in Human PBMC's
Human PBMC assay was used as one of the functional assay a to monitor the activity of IRAK1 and IRAK4 small molecule inhibitors on TLR7 induced IL-6 secretion in human mononuclear cells (PBMC's). Human PBMCs were prepared from buffy coats (whole blood enriched with leukocytes and platelets) obtained from healthy volunteers used either fresh or frozen are plated in assay media (RPMI+2% P/S/L-glu+10% HI-FBS) and pre-treated with compounds in DMSO/media (range of concentrations from 25 uM to 0.4 nM) or controls (0.25% DMSO) for 30 minutes at 37° C. in assay media. Following pre-treatment with IRAK1 and IRAK4 inhibitors, PBMC's were stimulated with TLR7 specific ligand (2 uM) overnight (16-18 hrs) at 37° C. After incubation supernatant was transferred to 384 well PE AlphaPlate-384 (6005350) and IL-6 is quantified using Perkin Elmer IL-6 Alpha LISA kit (AL223C). Plates were read on an Envision® plate reader with Alpha Technology®.

IRAK4 = IRAK4 (Homo sapiens (Human), UniProt Q9NWZ3); test: IRAK4 enzymatic assay; assay type: biochemical
How it was run: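 Recombinant His-TEV-IRAK4 (20 ng/well) phosphorylating biotinylated STK1 peptide (300 nM) with 2 μM ATP plus [^33P]ATP, 3 h at 30° C in pH 7.0 Hepes buffer with Mg2+ and Mn2+. Compounds 20 µM to 1 nM; EDTA stop, radioactivity captured on streptavidin FlashPlates.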

[2] = target: IRAK1 (His-TEV-IRAK1 (194-712)) (Homo sapiens (Human), UniProt P51617); test: IRAK1 enzymatic assay; assay type: biochemical
How it was run: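 Recombinant His-TEV-IRAK1 (194-712), 15 ng/well, autophosphorylation with 1 μM ATP plus [33P]ATP, 3 h at 30° C in Hepes pH 7.0 buffer with MgCl2, DTT, EGTA, BSA and Triton; compounds from 20 µM to 1 nM. The reaction was stopped with EDTA, and radioactivity was counted in streptavidin FlashPlates.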

IRAK1 (His-TEV-IRAK1 (194-712)), sequence (P51617 194-712): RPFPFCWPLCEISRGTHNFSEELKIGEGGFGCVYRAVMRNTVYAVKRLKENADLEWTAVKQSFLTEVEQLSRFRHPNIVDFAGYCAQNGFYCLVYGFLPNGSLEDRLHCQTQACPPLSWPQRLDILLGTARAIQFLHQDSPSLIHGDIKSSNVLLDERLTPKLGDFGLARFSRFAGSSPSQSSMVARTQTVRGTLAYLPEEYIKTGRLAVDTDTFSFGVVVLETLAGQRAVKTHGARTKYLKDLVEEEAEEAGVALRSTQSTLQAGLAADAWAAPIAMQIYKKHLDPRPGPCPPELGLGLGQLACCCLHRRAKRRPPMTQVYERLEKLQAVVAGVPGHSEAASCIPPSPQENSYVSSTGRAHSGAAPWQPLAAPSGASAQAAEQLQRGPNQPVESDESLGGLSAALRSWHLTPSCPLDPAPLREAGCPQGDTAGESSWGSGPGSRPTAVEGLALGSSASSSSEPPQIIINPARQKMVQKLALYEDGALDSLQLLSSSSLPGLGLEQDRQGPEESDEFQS
IRAK4, sequence (Q9NWZ3 whole entry): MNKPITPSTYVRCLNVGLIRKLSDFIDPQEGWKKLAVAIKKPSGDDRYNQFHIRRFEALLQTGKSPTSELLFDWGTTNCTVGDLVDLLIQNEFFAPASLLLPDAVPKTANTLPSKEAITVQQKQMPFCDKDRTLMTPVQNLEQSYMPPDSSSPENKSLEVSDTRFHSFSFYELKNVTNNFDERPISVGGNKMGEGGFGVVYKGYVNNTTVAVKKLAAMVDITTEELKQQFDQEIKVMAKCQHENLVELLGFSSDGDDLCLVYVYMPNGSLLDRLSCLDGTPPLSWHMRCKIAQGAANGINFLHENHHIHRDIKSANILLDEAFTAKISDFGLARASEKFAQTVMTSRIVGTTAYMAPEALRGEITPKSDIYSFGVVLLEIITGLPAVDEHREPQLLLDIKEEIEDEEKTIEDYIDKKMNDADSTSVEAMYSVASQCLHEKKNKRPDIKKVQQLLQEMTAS

Row | SMILES | IC50 [1] | IC50 (IRAK4) | IC50 [2]
1 | Cn1cc(-c2cccc(-c3ncc(-c4cnn(C)c4)c(N[C@H]4CCC[C@@H]4O)n3)c2)cn1 (racemic) [Example 94] | 1000 to 5000 nM | < 100 nM | 100 to 1000 nM
2 | Cn1cc(-c2cccc(-c3ncc(-c4ccn(C)n4)c(N[C@@H]4CC[C@H](N)C4)n3)c2)cn1 (racemic) [Example 107] | 100 to 1000 nM | 100 to 1000 nM | 100 to 1000 nM
3 | Cn1cc(-c2cccc(-c3ncc(-c4cnn(C)c4)c(N[C@@H]4CC[C@H](N)C4)n3)c2)cn1 (racemic) [Example 108] | 100 to 1000 nM | < 100 nM | 100 to 1000 nM
4 | Cn1cc(-c2cccc(-c3ncc(-c4cnn(C)c4)c(N[C@@H]4CNC[C@H]4O)n3)c2)cn1 (racemic) [Example 113] | 1000 to 5000 nM | < 100 nM | 100 to 1000 nM
5 | Cn1cc(-c2cccc(-c3ncc(-c4ccn(C)n4)c(N[C@@H]4CCC[C@@H](O)[C@H]4O)n3)c2)cn1 (racemic) [Example 131] | 1000 to 5000 nM | < 100 nM | 1000 to 5000 nM
6 | Cn1cc(-c2cccc(-c3ncc(-c4cnn(C)c4)c(N[C@@H]4CCC[C@@H](O)[C@H]4O)n3)c2)cn1 (racemic) [Example 133, (1R,2S,3R)-3-{5-(1-Methyl-1H-pyrazol-4-yl)-2-[3-(1-methyl-1H-pyrazol-4-yl)-phenyl]-pyrimidin-4-ylamino}-cyclohexane-1,2-diol] | 100 to 1000 nM | < 100 nM | 100 to 1000 nM
7 | Cn1cc(-c2cccc(-c3ncc(-c4cnn(C)c4)c(O[C@@H]4CCC[C@@H](N)[C@@H]4O)n3)c2)cn1 (racemic) [Example 134, (1S,2R,6R)-2-Amino-6-{5-(1-methyl-1H-pyrazol-4-yl)-2-[3-(1-methyl-1H-pyrazol-4-yl)-phenyl]-pyrimidin-4-yloxy}-cyclohexanol] | < 100 nM | < 100 nM | < 100 nM
8 | Cn1cc(-c2cccc(-c3ncc(-c4cnn(C)c4)c(N[C@H]4CCC[C@@H](O)C4)n3)c2)cn1 (racemic) [Example 161] | 100 to 1000 nM | < 100 nM | < 100 nM
9 | Cn1cc(-c2cccc(-c3ncc(-c4cnn(C)c4)c(N[C@H]4CCC[C@H](O)C4)n3)c2)cn1 (racemic) [Example 162] | 100 to 1000 nM | < 100 nM | 100 to 1000 nM
10 | Cn1cc(-c2cccc(-c3ncc(-c4cnn(C)c4)c(NC4CCC(O)C4)n3)c2)cn1 (racemic) [Example 167] | 1000 to 5000 nM | < 100 nM | 1000 to 5000 nM
11 | CN[C@H]1CCC[C@H](Nc2nc(-c3cccc(-c4cnn(C)c4)c3)ncc2-c2cnn(C)c2)[C@@H]1O (racemic) [Example 281, (1R,2S,6S)-2-Methylamino-6-{5-(1-methyl-1-pyrazol-4-yl)-2-[3-(1-methyl-1H-pyrazol-4-yl)-phenyl]-pyrimidin-4-ylamino}-cyclohexanol] | 1000 to 5000 nM | < 100 nM | > 5000 nM
12 | Cn1cc(-c2cccc(-c3ncc(-c4cnn(C)c4)c(N[C@H]4CCC[C@H](F)[C@H]4O)n3)c2)cn1 (single isomer, unassigned) [Example 285] | 100 to 1000 nM | < 100 nM | 100 to 1000 nM
13 | Cn1cc(-c2cccc(-c3ncc(-c4cnn(C)c4)c(N[C@@H]4CCC[C@@H](F)[C@@H]4O)n3)c2)cn1 (single isomer, unassigned) [Example 286] | 100 to 1000 nM | < 100 nM | 100 to 1000 nM
14 | Cn1cc(-c2cccc(-c3ncc(-c4cnn(C)c4)c(N[C@H]4CCCC[C@@H](O)[C@H]4O)n3)c2)cn1 (stereo in doubt) [Example 248] | 100 to 1000 nM | < 100 nM | 100 to 1000 nM
15 | Cn1cc(-c2cccc(-c3ncc(-c4ccn(C)n4)c(O[C@@H]4CCC[C@@H](N)[C@@H]4O)n3)c2)cn1 [Example 132] | 100 to 1000 nM |  | 100 to 1000 nM
16 | Cc1nnc(-c2cnc(-c3cccc(-c4cnn(C)c4)c3)nc2NC2CCN(S(C)(=O)=O)CC2)s1 [Example 151] | 100 to 1000 nM |  | 100 to 1000 nM
17 | Cn1cc(-c2cccc(-c3ncc(-c4cnn(C)c4)c(N[C@H]4CCN(S(C)(=O)=O)C4)n3)c2)cn1 [Example 170] | 1000 to 5000 nM |  | 100 to 1000 nM
18 | CC(=O)N1CCC(CNc2nc(-c3cccc(-c4cnn(C)c4)c3)ncc2-c2cnn(C)c2)C(F)C1 (centres unmarked) [Example 235] |  | 100 to 1000 nM | 1000 to 5000 nM

Row | SMILES | IC50 [1] | IC50 (IRAK4) | IC50 [2]
19 | Cn1cc(-c2cccc(-c3ncc(-c4cnn(C)c4)c(NCC4(F)CCN(S(C)(=O)=O)CC4)n3)c2)cn1 [Example 236] |  | 100 to 1000 nM | 1000 to 5000 nM
20 | CC(=O)N1CCC(F)(CNc2nc(-c3cccc(-c4cnn(C)c4)c3)ncc2-c2cnn(C)c2)CC1 [Example 237] |  | 100 to 1000 nM | 1000 to 5000 nM
21 | Cn1cc(-c2cccc(-c3ncc(-c4cnn(C)c4)c(NCC4(O)CCNCC4)n3)c2)cn1 [Example 240] |  | 100 to 1000 nM | > 5000 nM
22 | Cn1cc(-c2cccc(-c3ncc(-c4cnn(C)c4)c(N4CC[C@@H](N)C4)n3)c2)cn1 [Example 241] |  | 100 to 1000 nM | 1000 to 5000 nM
23 | CC(=O)N[C@@H]1CCN(c2nc(-c3cccc(-c4cnn(C)c4)c3)ncc2-c2cnn(C)c2)C1 [Example 246] |  | 1000 to 5000 nM | > 5000 nM
24 | Cn1cc(-c2cccc(-c3ncc(-c4cnn(C)c4)c(N4CC[C@@H](NS(C)(=O)=O)C4)n3)c2)cn1 [Example 247] |  | 100 to 1000 nM | 1000 to 5000 nM
25 | Cn1cc(-c2cccc(-c3ncc(-c4cnn(C)c4)c(NCC4(O)CCN(S(C)(=O)=O)CC4)n3)c2)cn1 [Example 249] |  | 100 to 1000 nM | 1000 to 5000 nM
26 | Cn1cc(-c2cccc(-c3ncc(-c4cnn(C)c4)c(N4CCC(NS(C)(=O)=O)CC4)n3)c2)cn1 [Example 250] |  | 100 to 1000 nM | 1000 to 5000 nM
27 | Cn1cc(-c2cccc(-c3ncc(-c4cnn(C)c4)c(NCCC4CCCCN4)n3)c2)cn1 (centres unmarked) [Example 251] |  | 1000 to 5000 nM | > 5000 nM
28 | Cn1cc(-c2cccc(-c3ncc(-c4cnn(C)c4)c(NCC4(N)CCCCC4)n3)c2)cn1 [Example 252] |  | < 100 nM | 100 to 1000 nM
29 | CC(=O)N1CCC(Nc2nc(-c3cccc(-c4cnn(C)c4)c3)ncc2-c2cnn(C)c2)CC1 [Example 255] |  | 100 to 1000 nM | 100 to 1000 nM
30 | CC(=O)N1CCCCC1CCNc1nc(-c2cccc(-c3cnn(C)c3)c2)ncc1-c1cnn(C)c1 (centres unmarked) [Example 258] |  | 100 to 1000 nM | > 5000 nM
31 | Cn1cc(-c2cccc(-c3ncc(-c4cnn(C)c4)c(NCCC4CCCCN4S(C)(=O)=O)n3)c2)cn1 (centres unmarked) [Example 259] |  | 100 to 1000 nM | > 5000 nM
32 | Cn1cc(-c2cccc(-c3ncc(-c4cnn(C)c4)c(N4CCC(CO)C4)n3)c2)cn1 (centres unmarked) [Example 261] |  | 100 to 1000 nM | 1000 to 5000 nM
33 | Cn1cc(-c2cccc(-c3ncc(-c4cnn(C)c4)c(N[C@H]4CC[C@@H](N5CCOCC5)CC4)n3)c2)cn1 [Example 263] |  | 1000 to 5000 nM | > 5000 nM
34 | Cn1cc(-c2cccc(-c3ncc(-c4cnn(C)c4)c(N4CCC(CN)C4)n3)c2)cn1 (centres unmarked) [Example 264] |  | 1000 to 5000 nM | > 5000 nM
35 | CC(Nc1nc(-c2cccc(-c3cnn(C)c3)c2)ncc1-c1cnn(C)c1)C1CCN(S(C)(=O)=O)CC1 (centres unmarked) [Example 274] |  | 100 to 1000 nM | > 5000 nM
36 | CC(=O)N1CCC(O)(CNc2nc(-c3cccc(-c4cnn(C)c4)c3)ncc2-c2cnn(C)c2)CC1 [Example 277] |  | 100 to 1000 nM | > 5000 nM
